{"source": "patent US20160228434A1", "about": "“TREATMENT OF DISEASES CAUSED BY ABNORMAL LYMPHOCYTE FUNCTION WITH AN HDAC6 INHIBITOR” (priority 2013, published 2016)", "assay_type_in_all_cases": "in vivo", "key": {"[1]": {"tested_on": "Treg cells (CD4+Foxp3+CD25+)", "experiment": "Splenic Treg phenotype by flow cytometry in treated NZB/W mice", "settings": "38-week-old NZB/W mice, both doses (5 and 20 mg/kg), vs vehicle control", "experimental": "(§1) NZB/W mice were injected intraperitoneally 5 days/week with the vehicle control (DMSO), ACY-738 treatment at 5 mg/kg (low-dose), or ACY-738 treatment at 20 mg/kg (high-dose) beginning at 22-weeks-of-age until euthanization at 38 weeks-of-age. ACY-738 was received from Acetylon Pharmaceuticals for use in all studies. Proteinuria and weight were measured every 2 weeks and blood was collected every four weeks for sera analysis. Proteinuria was measured by a standard semi-quantitative test using Siemens Uristix dipsticks (Siemens Healthcare, Deerfield, Ill., USA). Results were quantified according to the manufacturer's instructions and scored as follows: dipstick reading of 0 mg/dL=0, trace=1, 30-100 mg/dL=2, 100-300 mg/dL=3, 300-2000 mg/dL=4, and 2000+ mg/dL=5.\nA single-cell suspension was obtained from the thymuses and spleens of treated NZB/W mice at 38 weeks-of-age. Briefly, the thymus was removed from each NZB/W mouse and dissociated across a sterile wire mesh in a petri dish containing ice-cold RPMI 1640 medium (Thermo Scientific). RBCs were lysed using RBC lysis buffer and cells were pelleted and washed with PBS. Splenocytes were stained with APC-conjugated CD3, FITC-conjugated CD4, eFluor450 (eF450)-conjugated CD8a, PerCP-CY5.5-conjugated CD25, and PE-conjugated Foxp3. […] Fluorescence was measured using a FACScan flow cytometer and data was analyzed by FlowJo software. […]"}, "[2]": {"tested_on": "sera anti-dsDNA, IgG, IgG2a, IgG2b, IgM", "experiment": "Sera anti-dsDNA and Ig isotype levels by ELISA in treated NZB/W mice", "experimental": "as §1\nSera were collected prior to initiation of treatment at 22 weeks-of-age and every 4 weeks until euthanization. The mice were anesthetized using isoflurane (Piramal Healthcare, Mumbai, Maharashtra, India) and bled from the retro-orbital sinus. Blood was allowed to clot for 2 hours and then centrifuged for 15 min at 10,000×g. The levels of sera antibodies to dsDNA were measured by ELISA. Sera samples were added to the plate at a 1:100 dilution, followed by a two-fold serial dilution. The plate was read at 380 nm on a Spectramax 340PC microplate spectrophotometer (Molecular Devices, Sunnyvale, Calif., USA). A final dilution of 1:800 was reported."}, "sera TGF-β and IL-1β": {"tested_on": "sera TGF-β and IL-1β", "experiment": "Sera IL-1β and TGF-β levels by ELISA in treated NZB/W mice", "experimental": "as §1\nIL-1β and TGF-β levels were measured from the sera by ELISA according to the manufacturer's protocol (eBioscience, San Diego, Calif., USA). The plate was read at 450 nm on a microplate spectrophotometer.\nIL-1β and TGF-β levels in the sera of NZB/W mice were measured every 4 weeks starting from 22 weeks until euthanization at 38 weeks-of-age (FIG. 8 A-B). At 22 weeks-of-age there were no significant differences in cytokine levels amongst the three groups. As the NZB/W mice aged, sera levels of TGF-β decreased whereas levels of IL-1β increased (FIG. 8 A-B)."}, "[3]": {"tested_on": "glomerular IL-6, IL-10 and TGF-β mRNA", "experiment": "Glomerular IL-6, IL-10 and TGF-β mRNA by real-time RT-PCR in treated NZB/W mice", "settings": "38-week-old NZB/W mice", "experimental": "as §1\nRNA was isolated using the mirVana miRNA isolation kit according to the manufacturer's protocol (Applied Biosystems, Carlsbad, Calif., USA). The eluates were quantified on a spectrophotometer (Nanodrop, Thermo Scientific, Waltham, Mass., USA). An aliquot was taken and diluted to 1 ng/μL for real-time RT-PCR. The eluted RNA was stored at −80° C.\nIL-6, IL-10 and TGF-β mRNA expression were measured using TaqMan Gene Expression assays (Applied Biosystems, Carlsbad, Calif., USA). The […] using the endogenous control GAPDH, and then the ΔCT was determined by calculating the fold change in expression between the NZB/W mice treated with ACY-738 and the DMSO-treated controls. All samples were run in triplicate.\nThe cortical tissue was isolated from one kidney of each mouse and pooled by treatment group. Briefly, cortical tissue was pressed through grading sieves and resuspended in 750 U/mL Worthington type I collagenase at 37° C. for 20 min. Glomerular cells were pelleted, resuspended in RNAlater (QIAGEN, Valencia, Calif., USA), and stored at −20° C. until RNA isolation.\nFollowing euthanization, glomeruli were isolated from the kidneys and RNA was extracted. Relative glomerular mRNA expression of IL-10, TGF-β, and IL-6 were determined using real-time RT-PCR."}, "[4]": {"tested_on": "glomerular IgG and C3 deposition", "experiment": "Glomerular immune complex (IgG, C3) deposition by immunofluorescence in treated NZB/W mice", "settings": "for glomerular C3 deposition (score 0-4, fluorescence) / glomerular IgG deposition (score 0-4, fluorescence): vs vehicle control", "experimental": "as §1\nOne half of each kidney was placed in OCT media and snap-frozen in a slurry containing dry ice and 2-methylbutane (Fisher Scientific, Hampton, N.H., USA). Frozen kidney sections were cut into […] sections and stained with goat anti-mouse IgG conjugated to FITC (Pierce) diluted 1:100 or goat anti-mouse C3-FITC (Pierce, Thermo Fisher Scientific, Waltham, Mass., USA) diluted 1:100. Kidney sections were examined by fluorescent microscopy. Sections were scored (0-4) for immune complex deposition by a pathologist in a blinded manner.\n5 μM kidney sections were stained with FITC-conjugated C3 or IgG and assessed for fluorescence intensity. (see FIGS. 10A and 10B)."}, "[5]": {"settings": "NZB/W mice, 5 and 20 mg/kg, dose-dependent"}, "[6]": {"settings": "5 mg/kg, vs DMSO-treated controls"}, "[7]": {"settings": "16 weeks of treatment, dose not stated"}}, "note": "Entries after “also recorded” stand apart in the source; their conditions may differ.", "data": [{"smiles": "O=C(NO)c1cnc(NC2(c3ccccc3)CC2)nc1", "note": "[ACY-738]", "values": [{"measurement": "percentage of splenic Treg cells (CD4+Foxp3+CD25+)", "setting": "[1]", "result": "significantly increased"}, {"measurement": "sera IgG2b level", "setting": "[2]; NZB/W mice at 38 weeks-of-age", "result": "significantly increased"}, {"measurement": "sera total IgM level", "setting": "[2]; NZB/W mice at 38 weeks-of-age", "result": "slightly increased; also recorded: no effect"}, {"measurement": "sera anti-dsDNA", "setting": "[2]; NZB/W mice, 5 mg/kg, vs vehicle control, p<0.05", "result": "significant decrease"}, {"measurement": "sera anti-dsDNA", "setting": "[2]; NZB/W mice, 20 mg/kg (high dose), 38 weeks-of-age, 16 weeks of treatment, 20 mg/kg", "result": "prevent an increase in anti-dsDNA; also recorded: more pronounced"}, {"measurement": "sera IgG2a level", "setting": "[2]; [5]", "result": "significantly decreased"}, {"measurement": "sera total IgG level", "setting": "[2]; [5]", "result": "significantly decreased"}, {"measurement": "sera IL-1β level", "setting": "sera TGF-β and IL-1β; 38-week-old NZB/W mice, low and high dose, levels rise with age", "result": "significantly decreased; also recorded: attenuated the increase"}, {"measurement": "sera TGF-β level", "setting": "sera TGF-β and IL-1β; NZB/W mice, 22 to 38 weeks-of-age, 5 and 20 mg/kg, levels fall in vehicle mice with age", "result": "reverse this trend in a dose-dependent manner; also recorded: attenuated the reduction"}, {"measurement": "reduction of glomerular IL-6 mRNA level", "setting": "[3]; [6]", "result": "more than 50%"}, {"measurement": "reduction of glomerular IL-10 mRNA level", "setting": "[3]; [6]", "result": "more than 50%"}, {"measurement": "glomerular IL-6 mRNA level", "setting": "[3]; 20 mg/kg", "result": "non-detectable levels"}, {"measurement": "glomerular IL-10 mRNA level", "setting": "[3]; 20 mg/kg", "result": "non-detectable levels"}, {"measurement": "glomerular TGF-β mRNA", "setting": "[3]; 5 and 20 mg/kg, dose-dependent", "result": "decreased"}, {"measurement": "glomerular C3 deposition (score 0-4, fluorescence)", "setting": "[4]; 5 mg/kg, 5 mg/kg", "result": "slight decrease; also recorded: no significant effect"}, {"measurement": "glomerular IgG deposition (score 0-4, fluorescence)", "setting": "[4]; 5 mg/kg, 5 mg/kg", "result": "slight decrease; also recorded: no significant effect"}, {"measurement": "glomerular C3 deposition (score 0-4, fluorescence)", "setting": "[4]; 20 mg/kg (high dose), 20 mg/kg", "result": "significantly decreased"}, {"measurement": "glomerular IgG deposition (score 0-4, fluorescence)", "setting": "[4]; 20 mg/kg (high dose), 20 mg/kg", "result": "significantly decreased"}, {"measurement": "glomerular C3 deposition level", "setting": "[4]; [7]", "result": "significantly decreased"}, {"measurement": "glomerular IgG deposition level", "setting": "[4]; [7]", "result": "significantly decreased"}]}]}
